According to ChEMBL document CHEMBL1129417, “Glucose transport-enhancing and hypoglycemic activity of 2-methyl-2-phenoxy-3-phenylpropanoic acids” (1996):

Experiments:
Format in all cases: functional
3T3-L1 [1] = test: In vitro measurements 2-Deoxyglucose (2DG) uptake in vehicle treated 3T3-L1 adipocytes at 100 uM dose.
Mus musculus [2] = test: compound was tested in vivo for hypoglycemic activity expressed as Glucose lowering relative to positive control in 6-8 week old C57BL/6J ob/ob mouse at 50 mg/kg
Rattus norvegicus [3] = species: Rattus norvegicus; test: Inhibition of gluconeogenesis in rat; settings: Rattus norvegicus; read-out: ED50
3T3-L1 [4] = test: Acute effects in vitro by measuring 2-deoxyglucose (2DG) uptake in vehicle treated 3T3-L1 adipocytes at 10 uM dose.
3T3-L1 [5] = test: Acute effects in vitro by measuring 2-deoxyglucose (2DG) uptake in vehicle treated 3T3-L1 adipocytes at 30 uM dose.
3T3-L1 [6] = test: In vitro measurements of 2-Deoxyglucose (2DG) uptake in vehicle treated 3T3-L1 adipocytes at 60 uM dose.
L6 = test: compound was evaluated for their acute effects in vitro by measuring 2-Deoxyglucose (2DG) uptake in vehicle treated L6 […] at 60 uM dose.
Mus musculus [7] = test: compound was tested in vivo for hypoglycemic activity expressed as Glucose lowering relative to positive control in 6-8 week old C57BL/6J ob/ob mouse at 25 mg/kg
3T3-L1 [8] = test: In vitro by measurements of 2-Deoxyglucose (2DG) uptake in vehicle treated 3T3-L1 adipocytes at 3 uM dose.
3T3-L1 [9] = test: compound was evaluated for their acute effects in vitro by measuring 2-Deoxyglucose (2DG) uptake in vehicle treated 3T3-L1 adipocytes at concentration of 10 micro M
3T3-L1 [10] = test: compound was evaluated for their acute effects in vitro by measuring 2-Deoxyglucose (2DG) uptake in vehicle treated 3T3-L1 adipocytes at concentration of 3 micro M
3T3-L1 [11] = test: compound was evaluated for their acute effects in vitro by measuring 2-Deoxyglucose (2DG) uptake in vehicle treated 3T3-L1 adipocytes at concentration of 30 micro M
3T3-L1 [12] = test: compound was evaluated for their acute effects in vitro by measuring 2-Deoxyglucose (2DG) uptake in vehicle treated 3T3-L1 adipocytes at 30 uM dose.
Mus musculus [13] = test: compound was tested in vivo for hypoglycemic activity expressed as Glucose lowering relative to positive control in 6-8 week old C57BL/6J ob/ob mouse at 0.5 mg/kg
Mus musculus [14] = test: In vivo hypoglycemic activity expressed as glucose lowering relative to positive control in 6-8 week old C57BL/6J ob/ob mouse at 10 mg/kg
Mus musculus [15] = test: In vivo hypoglycemic activity expressed as glucose lowering relative to positive control in 6-8 week old C57BL/6J ob/ob mouse at 1 mg/kg.
Mus musculus [16] = test: In vivo hypoglycemic activity expressed as glucose lowering relative to positive control in 6-8 week old C57BL/6J ob/ob mouse at 5 mg/kg.
3T3-L1 [17] = test: compound was evaluated for their acute effects in vitro by measuring 2-Deoxyglucose (2DG) uptake in vehicle treated 3T3-L1 adipocytes at 1 uM dose.
Mus musculus [18] = test: compound was tested in vivo for hypoglycemic activity in 6-8 week old C57BL/6J ob/ob mouse at 10 mg/kg
Rattus norvegicus [19] = species: Rattus norvegicus; test: Compound was tested for inhibition of gluconeogenesis
3T3-L1 [20] = test: compound was evaluated for their acute effects in vitro by measuring 2-Deoxyglucose (2DG) uptake in vehicle treated 3T3-L1 adipocytes at 3 uM dose.
3T3-L1 [21] = test: compound was evaluated for their acute effects in vitro by measuring 2-Deoxyglucose (2DG) uptake in vehicle treated 3T3-L1 adipocytes at 100 uM dose.
Mus musculus [22] = test: compound was tested in vivo for hypoglycemic activity in 6-8 week old C57BL/6J ob/ob mouse at 50 mg/kg
[23] = Rattus norvegicus, read-out: ED50

Structure (SMILES) | ED50 (Rattus norvegicus [3]) [mg/kg] | Basal uptake (3T3-L1 [4]) [%] | Basal uptake (3T3-L1 [5]) [%] | Basal uptake (3T3-L1 [6]) [%] | Hypoglycemic activity (Mus musculus [14]) [%] | Hypoglycemic activity (Mus musculus [16]) [%] | other results
CC(C)c1ccc(OC(C(=O)O)c2ccc(Cl)cc2)cc1 (stereo not given) | > 50 | – | – | – | – | – | Basal uptake (3T3-L1 [1]): 248%; Hypoglycemic activity (Mus musculus [2]): <0%
Cc1ccc(OC(Cc2ccc(Cl)cc2)C(=O)O)cc1 (stereo not given) | > 25 | 82 | 88 | <100 | – | – | Basal uptake (L6): 93%; Hypoglycemic activity (Mus musculus [7]): 33%
CC(C)c1ccc(OC(C)(Cc2cccc(-c3ccccc3)c2)C(=O)[O-])cc1.[Na+] (stereo not given) | 0.5 | 76 | – | – | 83 | 110 | Basal uptake (3T3-L1 [8]): 87%; Basal uptake (3T3-L1 [9]): 118%; Basal uptake (3T3-L1 [10]): 109%; Basal uptake (3T3-L1 [11]): 193%; Basal uptake (3T3-L1 [12]): 118%; Hypoglycemic activity (Mus musculus [13]): 46%; Hypoglycemic activity (Mus musculus [15]): 78%
CCC(c1ccc(Cl)cc1)C(C)(Oc1ccc(C(C)C)cc1)C(=O)O (stereo in doubt; 86) | < 10 | 91 | 95 | – | – | – | Basal uptake (3T3-L1 [17]): 97%; Hypoglycemic activity (Mus musculus [14]; 10 mg/kg): 71%
CC(C)c1ccc(OC(C)(Cc2ccc(Cl)cc2)C(=O)NS(=O)(=O)C(F)(F)F)cc1 (stereo not given) | 5 | 232 | 273 | 79 | – | – | Basal uptake (3T3-L1 [17]): 108%; Basal uptake (3T3-L1 [8]): 130%
CC(C)c1ccc2c(c1)CCC(Cc1ccc(Cl)cc1)(C(=O)O)O2 (stereo not given) | 5 | 82 | 80 | 114 | – | <0 | Hypoglycemic activity (Mus musculus [2]): 119%
Cc1ccccc1S(=O)(=O)[N-]CC(C)(Cc1ccc(Cl)cc1)Oc1ccc(C(C)C)cc1.[Na+] (stereo not given) | – | – | – | – | – | – | Hypoglycemic activity (Mus musculus [18]): 7%; ED50 (Rattus norvegicus [19]; [23]): 10 mg/kg
CCc1ccc(CC(C)(Oc2ccc(C(=O)c3ccccc3)cc2)C(=O)O)cc1 (stereo not given) | 0.5 | – | – | – | 107 | 108 | Hypoglycemic activity (Mus musculus [13]): 60%; Hypoglycemic activity (Mus musculus [15]): 65%
CC(C)c1ccc(OC(C)(Cc2ccccc2)C(=O)[O-])cc1.[Na+] (stereo not given) | > 10 | 126 | – | – | 3 | – | Basal uptake (3T3-L1 [17]): 100%; Basal uptake (3T3-L1 [20]): 162%
CC(C)c1ccc(OC(C)(Cc2ccc3c(c2)CCC3)C(=O)[O-])cc1.[Na+] (stereo not given) | 0.5 | – | – | – | 126 | 121 | Hypoglycemic activity (Mus musculus [13]): 34%; Hypoglycemic activity (Mus musculus [15]): 83%
CC(C)c1ccc(C(F)C(C)(Cc2ccc(Cl)cc2)C(=O)O)cc1 (stereo in doubt; 94) | – | – | – | – | – | – | Hypoglycemic activity (Mus musculus [18]; 10 mg/kg): 63%; ED50 (Rattus norvegicus [19]): 10 mg/kg
O=C(O)C(Cc1ccc(Cl)cc1)Oc1ccccc1 (stereo not given) | > 25 | – | – | 100 | – | – | Basal uptake (L6): 86%; Hypoglycemic activity (Mus musculus [7]): <0%
CCCc1cccc(CC(C)(Oc2ccc(C(C)C)cc2)C(=O)[O-])c1.[Na+] (stereo not given) | 1 | 128 | 229 | – | 123 | 82 | Basal uptake (3T3-L1 [17]): 123%; Basal uptake (3T3-L1 [8]): 136%; Hypoglycemic activity (Mus musculus [15]): 47%
CC(C)c1ccc(CC(C)(Oc2ccc(C(C)C)cc2)C(=O)[O-])cc1.[Na+] (stereo not given) | 5 | 97 | 93 | – | 93 | <0 | Basal uptake (3T3-L1 [20]): 97%
CCc1cccc(CC(C)(Oc2ccc(C(C)C)cc2)C(=O)[N-]S(=O)(=O)C(F)(F)F)c1.[Na+] (stereo not given) | – | – | – | – | – | – | Hypoglycemic activity (Mus musculus [18]): 43%; ED50 (Rattus norvegicus [19]; [23]): > 10 mg/kg
CCCc1ccc(CC(C)(Oc2ccc(C(C)C)cc2)C(=O)[O-])cc1.[Na+] (stereo not given) | 0.5 | – | 97 | 282 | 113 | 134 | Basal uptake (3T3-L1 [9]): 100%; Basal uptake (3T3-L1 [10]): 103%; Basal uptake (3T3-L1 [11]): 233%; Hypoglycemic activity (Mus musculus [13]): 69%; Hypoglycemic activity (Mus musculus [15]): 70%
CC(C)(C)c1ccc(OC(Cc2ccc(Cl)cc2)C(=O)O)cc1 (stereo not given) | 25 | 92 | 87 | <100 | – | – | Basal uptake (L6): 84%; Hypoglycemic activity (Mus musculus [7]): 53%
C1CCC(NC2CCCCC2)CC1.CC(C)c1ccc(OC(Cc2cccc(Cl)c2)C(=O)O)cc1 (stereo not given) | – | – | – | – | – | – | Basal uptake (3T3-L1 [21]): 160%; Hypoglycemic activity (Mus musculus [22]): 32%; ED50 (Rattus norvegicus [19]; [23]): > 50 mg/kg
